This note sets out measurements from article PMC4893628, “Chalcone-based Selective Inhibitors of a C4 Plant Key Enzyme as Novel Potential Herbicides” (Scientific Reports, 2016).

Structures are written as SMILES. Like-named read-outs stand apart in the source and are kept apart here.

In experiment [1] the test system is Pseudomonas putida KT2440. The experiment in a line: Bacterial growth in microscale cultivation, P. putida. It counts as cell-based. Particulars: relative to control; for activity at 55 µM / activity at 550 µM / activity at 4 µM / activity at 40 µM / activity at 400 µM / activity at 0.4 µM: Pseudomonas putida. The method, then: The following bacteria were cultivated in the presence of trans-chalcone derived inhibitors: Corynebacterium glutamicum ATCC13032[43], Escherichia coli K-12 MG1655[44], Pseudomonas putida KT2440[45], and Bacillus subtilis 168[46]. The growth of these bacteria was monitored in flower-well plates shaken at 1200 rpm as backscatter at 620 nm (gain 20) using a BioLector® microscale cultivation system (m2p labs, Baesweiler, Germany). For further experimental details please refer to the Supplementary Information.
medium or the appropriate minimal medium and shaken at 140 rpm overnight. For inoculation of
the main culture, cells equivalent to an optical density at 600 nm of 0.5 (C. glutamicum, E. coli,
and P. putida) or 0.25 (B. subtilis) in 800 µL medium were washed and resuspended in fresh
media. Inhibitor substances were dissolved in DMSO and added to the media to a final
Since the least polar trans-chalcone and 2’-hydroxychalcone precipitated in the growth media at
the highest concentrations, the maximal concentration of these compounds was reduced to 400
µM and 100 µM, respectively. The final backscatter at 620 nm, the growth rate (h-1), and the
duration of the lag phase of all cultures were determined in a BioLector microscale cultivation
system in comparison to negative controls supplemented with the solvent DMSO. A longer lag

Another experiment concerns Amaranthus retroflexus. The experiment in a line: In planta growth experiment, A. retroflexus. The experiment is classed as in vivo. Particulars: shoots sprayed, 3 mM. The source says:
Seeds of Amaranthus retroflexus L. (Herbiseed, Twyford, UK) and Brassica napus L. cv. Mozart (Norddeutsche Pflanzenzucht Hans-Georg Lembke KG, Holtsee, Germany) were sown in vermiculite for germination. When cotyledons were fully expanded, seedlings were transplanted into plastic pots with a volume of 0.230 L filled with a substrate containing 50% bottom ash (0–4 mm), 30% peat and 20% pumice gravel (0–4 mm). Plants were watered every other day with 0.03% Hakaphos® Grün solution (Compo Expert GmbH, Münster, Germany) by sub-irrigation. Plants were grown in a climate chamber at 22 °C/20 °C day/night temperature and a day/night length of 16 h/8 h. Relative humidity was adjusted to 70% and light intensity was 320 μmol m^−2 s^−1 PAR (Photosynthetically Active Radiation) at plant level.
When seedlings reached the two-leaf growth stage, plant shoots were sprayed from the top with treatment solutions using spray bottles with a spraying angle of 35° (10 ml, neoLab Migge Laborbedarf-Vertriebs GmbH, Heidelberg, Germany). Treatment solutions were applied from a height of 8.5 cm above the pots. Each pot was sprayed once with a solution volume of 0.135 ml. Treatment solutions contained 2.4% (v/v) DMSO (dimethylsulfoxide, Duchefa Biochemie, Haarlem, the Netherlands), 0.1% (v/v) Tween® and the respective compound at a concentration of 3 mM. The control treatment contained 2.4% (v/v) DMSO, and 0.1% (v/v) Tween20. Further details are given in the Supplementary Information. […]
Experimental design and assessments of in planta experiments
We tested eleven compounds in a first experiment. In a follow-up experiment we tested selected […]
chalcone. Each treatment was repeated 12 times, except for oilseed rape in the second experiment (n=10). Pots were arranged in the growth chamber according to a fully randomized design. Initial growth of the second leaf of A. retroflexus plants was monitored by aquiring images of each plant from above from day zero to day two after treatment. Images were taken […]
from a fixed distance at 90° view angle using the camera Canon EOS 70D equipped with a Canon EF 14 mm/2.8 L II USM lens. Leaf area of single leaves was measured using the ImageJ software31, by drawing the leaf contours using a drawing tablet (Cintiq 22HD, Wacom Europe GmbH, Krefeld, Germany). Conversion of pixel to cm was achieved by using a target of known size inside the image. Six days after the treatment, half of the plants were harvested. Leaf area was assessed using a leaf area meter (LI3100C Area Meter, LI-Cor, Lincoln, Nebraska, USA) and samples were oven-dried at 65°C for seven days to obtain dry weight . Thirteen days after the treatment, this procedure was repeated with the second half of plants.
Chlorophyll fluorescence measurements […]
6 mm leaf discs were cut out of the second leaf and immediately placed into 96-well-plates filled with 300 µL 0.125 % Hoagland’s solution with 1 mM MES-KOH (MES-monohydrate, Merck, Darmstadt, Germany) buffered to a pH of 6.5. The treatment solution contained 1.6 % (v/v) DMSO, 0.1 % (v/v) Tween® 20 and 2',3',4',3,4-Pentahydroxychalcone at a concentration of 2 mM. The control treatment contained 1.6 % (v/v) DMSO, 0.1 % (v/v) Tween® 20. Each leaf disc was treated with 1.5 µL solution placed on top of the leaf discs. Plates were sealed with Parafilm and placed into a climate cabinet with 12h/12h day/night-length and a temperature of 22°C at a light intensity of 130 µmol m-2 s-1. 96 hours after treatment, chlorophyll fluorescence measurements were performed on leaf discs using an Imaging PAM M-Series fluorescence camera (Heinz Walz GmbH, Effeltrich, Germany). Leaf discs were dark adapted for 30 minutes, minimum and maximum chlorophyll fluorescence were obtained and leaf discs were illuminated for 30 minutes

The mark [2] stands for this setting: KT2440, complex medium, 4 µM, read-out: Final Backscatter.
The mark [3] stands for this setting: KT2440, complex medium, 4 µM, read-out: Growth rate.
Where [4] appears, read: KT2440, complex medium, 40 µM, read-out: Final Backscatter.
The mark [5] stands for this setting: KT2440, complex medium, 40 µM, read-out: Growth rate.
[6] abbreviates: KT2440, complex medium, 400 µM, read-out: Final Backscatter.
Where [7] appears, read: KT2440, complex medium, 400 µM, read-out: Growth rate.
The mark [8] stands for this setting: KT2440, minimal medium, 4 µM, read-out: Final Backscatter.
Setting [9] is: KT2440, minimal medium, 4 µM, read-out: Growth rate.
Setting [10] is: KT2440, minimal medium, 40 µM, read-out: Final Backscatter.
[11] abbreviates: KT2440, minimal medium, 40 µM, read-out: Growth rate.
Setting [12] is: KT2440, minimal medium, 400 µM, read-out: Final Backscatter.
[13] abbreviates: KT2440, minimal medium, 400 µM, read-out: Growth rate.

Turning to `O=C(/C=C/c1ccccc1)c1cc(O)ccc1O` [Compound 5, 2′,5′-Dihydroxychalcone], the activity at 55 µM in experiment [1] (KT2440, complex medium, 55 µM, read-out: Final Backscatter) amounted to 98.5%; in experiment [1] (KT2440, complex medium, 55 µM, read-out: Growth rate) it was 105%; in experiment [1] (KT2440, minimal medium, 55 µM, read-out: Final Backscatter) it was 95.5%; in experiment [1] (KT2440, minimal medium, 55 µM, read-out: Growth rate), 99.4%. Besides, the activity at 550 µM in experiment [1] (KT2440, complex medium, 550 µM, read-out: Final Backscatter) turned out to be 94.4%; in experiment [1] (KT2440, complex medium, 550 µM, read-out: Growth rate) it was 118%; in experiment [1] (KT2440, minimal medium, 550 µM, read-out: Final Backscatter), 96.7%; in experiment [1] (KT2440, minimal medium, 550 µM, read-out: Growth rate) it was 101%. Besides, the “Lag Phase” value in experiment [1] (complex medium, 55 µM) was 99,1%; in experiment [1] (complex medium, 550 µM) it was 105,0%; in experiment [1] (minimal medium, 55 µM) it was 101,0%; in experiment [1] (minimal medium, 550 µM), 98,0%. In addition, in the experiment with Amaranthus retroflexus, the Influence on plants entry was “No”.
With `O=C(/C=C/c1ccc(O)cc1)c1ccc(O)cc1O` [Compound 6, 2′,4′,4-Trihydroxychalcone], the activity at 4 µM in experiment [1] (setting [2]) was found to be 97.7%; in experiment [1] (setting [3]), 104%; in experiment [1] (setting [8]) it was 99%; in experiment [1] (setting [9]), 104%. Besides, the activity at 40 µM is 97.2% in experiment [1] (setting [4]), 106% in experiment [1] (setting [5]), 103% in experiment [1] (setting [10]) and 106% in experiment [1] (setting [11]). For the same compound, the activity at 400 µM in experiment [1] (setting [6]) was 99.9%; in experiment [1] (setting [7]) it was 100%; in experiment [1] (setting [12]), 117%; in experiment [1] (setting [13]), 104%. Besides, the “Lag Phase” value was 99,4% in experiment [1] (complex medium, 4 µM); 101,7% in experiment [1] (complex medium, 40 µM); 107,3% in experiment [1] (complex medium, 400 µM); 103,3% in experiment [1] (minimal medium, 4 µM); 105,6% in experiment [1] (minimal medium, 40 µM); 107,8% in experiment [1] (minimal medium, 400 µM). Further, the Influence on plants entry in the experiment on Amaranthus retroflexus was “No”.
For the compound `O=C(/C=C/c1ccccc1O)c1ccc(O)cc1O` [Compound 7, 2′,4′,2-Trihydroxychalcone], the activity at 4 µM amounted to 99.1% in experiment [1] (setting [2]), 100% in experiment [1] (setting [3]), 101% in experiment [1] (setting [8]) and 98.3% in experiment [1] (setting [9]). The activity at 40 µM in experiment [1] (setting [4]) turned out to be 95.3%; in experiment [1] (setting [5]), 101%; in experiment [1] (setting [10]) it was 100%; in experiment [1] (setting [11]), 94.3%. Further, the activity at 400 µM in experiment [1] (setting [6]) came to 99.9%; in experiment [1] (setting [7]), 99.6%; in experiment [1] (setting [12]) it was 99.8%; in experiment [1] (setting [13]), 106%. For the same compound, the “Lag Phase” value is 100,0% in experiment [1] (complex medium, 4 µM); 100,0% in experiment [1] (complex medium, 40 µM); 100,0% in experiment [1] (complex medium, 400 µM); 111,6% in experiment [1] (minimal medium, 4 µM); 101,6% in experiment [1] (minimal medium, 40 µM); 95,6% in experiment [1] (minimal medium, 400 µM). In addition, the Influence on plants result in the experiment with Amaranthus retroflexus was “No”.
Regarding `O=C(/C=C/c1ccc(O)c(O)c1)c1ccc(O)cc1O` [Compound 8, 2′,4′,3,4-Tetrahydroxy-chalcone], the activity at 0.4 µM in experiment [1] (KT2440, complex medium, 0.4 µM, read-out: Final Backscatter) came to 94.7%; in experiment [1] (KT2440, complex medium, 0.4 µM, read-out: Growth rate) it was 90.8%; in experiment [1] (KT2440, minimal medium, 0.4 µM, read-out: Final Backscatter), 87%; in experiment [1] (KT2440, minimal medium, 0.4 µM, read-out: Growth rate) it was 83.7%. Moreover, the activity at 4 µM in experiment [1] (setting [2]) was determined as 97%; in experiment [1] (setting [3]) it was 97.4%; in experiment [1] (setting [8]) it was 89.8%; in experiment [1] (setting [9]), 89%. Also, the activity at 40 µM in experiment [1] (setting [4]) was 94.9%; in experiment [1] (setting [5]), 95.3%; in experiment [1] (setting [10]) it was 94.8%; in experiment [1] (setting [11]), 90%. Also, the “Lag Phase” value in experiment [1] (complex medium, 0.4 µM) was 92,6%; in experiment [1] (complex medium, 4 µM), 93,2%; in experiment [1] (complex medium, 40 µM), 96,3%; in experiment [1] (minimal medium, 0.4 µM), 99,6%; in experiment [1] (minimal medium, 4 µM) it was 99,6%; in experiment [1] (minimal medium, 40 µM), 98,5%. The Influence on plants entry with Amaranthus retroflexus was “No”.
